{
  "source": "patent US20160047805A1",
  "about": "“IN SITU-DILUTION METHOD AND SYSTEM FOR MEASURING MOLECULAR AND CHEMICAL INTERACTIONS” (FLIR SYSTEMS, INC., priority 2010, published 2016)",
  "key": {"[1]": {"system": "immobilized carbonic anhydrase", "assay": "SPR kinetic analysis, in situ dilution injection method, thermodynamic analysis", "conditions": "three temperatures (10, 25, 35 °C), 1:1 binding model", "description": "(§1) In Example 1, the kinetic values for the interaction between carboxybeneze sulfonamide and immobilized carbonic anhydrase were determined using a standard multiple injection method and the in situ dilution method described herein. In the classical approach sequential injection method (FIGS. 4A-4D) a series of individual concentrations were prepared as a serial doubling dilution set starting from a neat concentration of 40 mM giving a total of nine different concentrations. These concentrations were made up in the running buffer (i.e HEPES buffer saline, pH 7.4). […] of each sample was injected at […] and allowed dissociate for 300 seconds. Each concentration was repeated in duplicate and the entire analysis was repeated at four different analysis temperatures (10 C, 20 C, 30 C, 40 C—FIGS. 4A-D, respectively). […] In this case a total of three interaction curves is recorded at three different temperatures representing a minimal data set that can be recorded at least an order faster than the conventional approach even normalized for the number replicates and the number of temperatures used. A single neat sample (40 mM) was injected using the in-situ-dilution injection and a serial doubling dilution of analyte was performed on-the-fly yielding a dose response curve. Dissociation was monitored for 200 seconds. This was repeated at three different temperatures. A blank injection was also included at each temperature for double referencing.\n(§2) In both data sets the samples were injected over a protein coated and a non-coated surface to enable double referencing of the binding response curves. The resulting referenced binding response curves were then fitted with a kinetic 1:1 binding interaction model and the fitted curves are shown in red. The kinetic values were then analyzed thermodynamically to determined thermodynamic constants for the interaction and these are shown in Tables 1 and 2 below."}, "[2]": {"system": "immobilized carbonic anhydrase", "assay": "SPR kinetic analysis, traditional (stepped/sequential multiple) injection method, thermodynamic analysis", "conditions": "HEPES buffer saline pH 7.4, 10, 20, 30, 40 C, 1:1 binding model", "description": "as §1, §2"}},
  "data": [
    {"smiles": "NS(=O)(=O)c1ccc(C(=O)O)cc1", "note": "[carboxybeneze sulfonamide]", "values": [
      {"measurement": "ΔG‡ Association", "setting": "[1]; association", "value": 11.1, "unit": "kcal/mol"},
      {"measurement": "ΔH‡ Association", "setting": "[1]; association", "value": 4.1, "unit": "kcal/mol"},
      {"measurement": "ΔS‡ Association", "setting": "[1]; association", "value": "−24", "unit": "cal/mol K"},
      {"measurement": "ΔG‡ Dissociation", "setting": "[1]; dissociation", "value": 18.8, "unit": "kcal/mol"},
      {"measurement": "ΔH‡ Dissociation", "setting": "[1]; dissociation", "value": 13.1, "unit": "kcal/mol"},
      {"measurement": "ΔS‡ Dissociation", "setting": "[1]; dissociation", "value": "−20", "unit": "cal/mol K"},
      {"measurement": "ΔG‡ Association", "setting": "[2]; association", "value": 11.60, "unit": "kcal/mol"},
      {"measurement": "ΔH‡ Association", "setting": "[2]; association", "value": 3.96, "unit": "kcal/mol"},
      {"measurement": "ΔS‡ Association", "setting": "[2]; association", "value": "−26.1", "unit": "cal/mol K"},
      {"measurement": "ΔG‡ Dissociation", "setting": "[2]; dissociation", "value": 19.32, "unit": "kcal/mol"},
      {"measurement": "ΔH‡ Dissociation", "setting": "[2]; dissociation", "value": 14.63, "unit": "kcal/mol"},
      {"measurement": "ΔS‡ Dissociation", "setting": "[2]; dissociation", "value": "−16.0", "unit": "cal/mol K"}
    ]}
  ]
}
